Reference: patent publication US7507749B2, “Antitumor agents” (priority 2001, dated 2009)

Tests used:
[1] = test system: mammary adenocarcinoma-17/Adr; test: Test E: R-enantiomer of compound 22b and compound 22a against early stage mammary adenocarcinoma-17/Adr; format: in vivo
Experimental: Then, P.B.S. was added and the pH adjusted to 7 with HCl. A volume of 0.2 ml per injection was administered to animals intravenously. […] Then, P.B.S. was added and the pH was adjusted to 7 with HCl. A volume of 0.2 ml per injection was administered to animals intravenously.

colon carcinoma 26 = details: Cg 3; IV 50 mg/kg/inj days 6,8,10,13,15; total 250 mg/kg
Experimental: In this trial the R-enantiomers of XK-469, compound 22c, and compound 22b were compared against advanced staged colon carcinoma 26 in female Balb/c mice. […] Cage #2 was 22b at 400 mg/kg and Cage #4 was 22c at 400 mg/kg.
The XK469-R, 22b, and 22c compound doses were all prepared the same, using 3% ethanol, 1% POE-80, and 0.5% sodium bicarbonate. The injection volume was 0.2 mu/mouse IV. […] The mice were Balb/c female mice: DOB Feb. 12, 2001; DOA Mar. 27, 2001; DOT Sep. 8, 2001, with an average body weight of 24.7 grams at the start of Rx administration. The tumor was Colon Carcinoma-26 passage 141; date of implant Sep. 8, 2001, and implanted at 30 to 60 mg fragments bilaterally SC. All tumors were 63 to 171 mg on day 6, the day of first Rx.

[2] = Cage 6, IV 83 mg/kg/inj qd 1-4, total 332 mg/kg
[3] = Cage 7, IV 55 mg/kg/inj qd 1-4, total 220 mg/kg
[4] = Cage 7, IV 55 mg/kg/inj qd 1-4, total 220 mg/kg, listed as R-enantiomer of compound 22b
[5] = Cage 8 (one mouse), IV single bolus 124.5 mg/kg day 1

SMILES: C[C@@H](Oc1ccc(Oc2ccc3ccc(Cl)cc3n2)cc1)C(=O)O [Compound R-22b, (R) 2-[4-(7-chloroquinolin-2-yloxy)phenoxy]propanoic acid]
- Neuromuscular toxicity ([1]; Cage 6, IV 83 mg/kg/inj qd 1-4): neuromuscular toxicity was not produced
- % Body Wt Loss at Nadir [1, 2]: −17.5%
- % T/C mass [1, 2]: toxic
- Activity Rating [1, 2]: toxic
- Cause of death [1, 2]: GI-epithelial damage
- Day of Nadir [1, 2]: 6 days
- Drug Deaths [1, 2]: 5/5
- Median Tumor Mass on day 9 (Range) [1, 2]: toxic
- Tumor Free day-23 [1, 2]: 0/5
- Drug Deaths ([1]; Cage 6, IV 83 mg/kg/inj qd 1-4, total 332 mg/kg, listed as R-enantiomer of compound 22b): killing all of the 5 mice
- % Body Wt Loss at Nadir [1, 3]: −23.4%
- % T/C mass [1, 3]: 0%
- Activity Rating [1, 3]: ++++ (>2.8)
- Cause of death [1, 3]: GI-epithelial damage (diarrhea) complicated with marrow toxicity
- Day of Nadir [1, 3]: 9 days
- Day of full recovery of body weight [1, 3]: 14 days
- Day tumors reached 1000 mg (range) [1, 3]: 22 (18-23) day
- Drug Deaths [1, 3]: 1/5
- Growth Delay [1, 3]: 13 days
- Log Kill [1, 3]: 3.3
- Median Tumor Mass on day 9 (Range) [1, 3]: 0 (all zeros) mg
- Tumor Free day-23 [1, 3]: 0/5
- % Body Wt Loss at Nadir [1, 4]: −23.4%
- % T/C mass [1, 4]: 0%
- % Body Wt Loss at Nadir [1, 5]: 0%
- Activity Rating [1, 5]: + (0.7-1.2)
- Day of Nadir [1, 5]: 9 days
- Drug Deaths [1, 5]: 0/1
- Growth Delay [1, 5]: 3 days
- Log Kill [1, 5]: 0.8
- Median Tumor Mass on day 9 (Range) [1, 5]: 340 (one mouse) mg
- Neuromuscular toxicity [1, 5]: no neuromuscular toxicity
- Tumor Free day-23 [1, 5]: 0/1
- % T/C mass ([1]; Cage 8 (one mouse), IV single bolus 124.5 mg/kg day 1, 124.5 mg/kg): 35%
- % T/C mass ([1]; Cage 8 (one mouse), IV single bolus 124.5 mg/kg day 1, listed as R-enantiomer of compound 22b, 124.5 mg/kg): 35%
- % Body Wt change at nadir (colon carcinoma 26): −6.2%
- Activity Rating (colon carcinoma 26): ++ (1.3-1.9)
- CR's (colon carcinoma 26): 1/6
- Drug Deaths (colon carcinoma 26): 0/6
- Growth Delay (colon carcinoma 26): 8 days
- Log Kill (colon carcinoma 26): 1.4
- Median time for tumors to 700 mg (range) (colon carcinoma 26): 21 (15.5-48) days
- PR's (colon carcinoma 26): 1/6
- Tumor Free day-156 (colon carcinoma 26): 0/6
- day of nadir (colon carcinoma 26): 16 days
